Measurements from patent publication US8834843B2, “Imaging method” (GE Healthcare Limited, priority 2007, dated 2014).
Read-outs that look alike come from different tables or passages of the source. Numbered stars: 1 amine (or outer) side, 2 acyl side, 3 side chain; on linkers, the order of the positions; unused ones are H or OH. Bridge positions count the residues as written; N and C are the ends. Side chains are listed from the residue outwards. Peptide text beside a SMILES is read from it. * marks the point of attachment. X1 = C/C(=N\O)C(C)(C)NCCC(CCNC(C)(C)/C(C)=N/O)CCN*; Glutaryl = O=C(CCCC(=O)[*:2])[*:1]; X2 = NC(=O)COCC(=O)NCCOCCOCCOCCN*

Columns and labels:
[1] = target: EA-Hy926 membranes; test: Competitive binding assay with 125I-echistatin on EA-Hy926 membranes; parameters: species or system human; details: cold compound vs 125I-echistatin, 1 hour at 37° C.; read-out: Ki in the EA-Hy926 membrane assay
Procedure: The inhibition constant of Compound 6 was measured using a previously-described membrane binding assay (Indrevoll et al, Bioorg & Med Chem Lett, 2006, 16, 6190-6193).
In brief, membranes from the human endothelial adenocarcinoma cell line EA-Hy926 were prepared and the Kd calculated for the purified membrane fraction. A competitive binding assay was then established to measure inhibition constants for cold Compound 6. ^125I-echistatin was used as the labelled ligand and cold echistatin as a reference standard.
A total of sixteen dilutions of cold test compound (either cold echistatin or cold Compound 6) were prepared and mixed with a combination of ^125I-echistatin and membrane prior to incubation for 1 hour at 37° C. Following several washes, the bound material was harvested on a filter using a Skatron micro harvester. The filterspots were finally excised and counted in a Packard γ-counter.
The inhibition constants for Compound 3 and Compound 8 were determined using the method described in Example 1. FIG. 3 illustrates binding of ^125I-echistatin versus cold Compound 3, Compound 8 and echistatin on EA-Hy926 membranes.

[2] = Biodistribution in BDL rats with and without excess cold compound; assay type: in vivo; details: male, Sprague Dawley, rat, iv, total radioactivity, BDL rats, 15 days post-op, 1 hour post-injection; for dose excreted at 1 h: bile and urine
Procedure: (§1) On the appropriate day post surgery BDL and sham animals were removed and put under isoflurane anaesthesia, then each animal was injected with 0.3 ml intravenously (i.v.) via tail vein (˜3MBq). At the appropriate time point post-injection of the test item, each animal was re-anaesthetised with isoflurane, sacrificed by cervical dislocation weighed and the weight recorded via a barcode scanning system. Each animal was dissected and the following organs and tissues were removed and counted using BASIL counter protocol 40 or manual counting:
(§2) The recorded activity in a whole organ (e.g., liver) was corrected for background radioactivity and for radioactive decay and the biodistribution of radioactivity calculated by reference to Formula I:
(§3) [formula] where: • A=counts per second measured in organ • B=total counts per second measured in all samples (excluding the injection site)
(§4) The percentage of injected radioactivity in the weighed tissue samples (e.g., blood) was calculated to give % i.d. in the entire tissue by reference to Formula 2:
(§5) [formula] where: • Zs=counts per second in sample • Ws=weight of sample in grams • Wb=weight of animal in grams immediately after sacrifice • B=total counts per second measured in all the samples (excluding the injection site) • F=tissue specific factor representing the mass of the tissue as a proportion of the total body weight of the animal
(§6) The biodistribution of radioactivity was investigated in 15 days post-operatively in BDL and sham-operated male Sprague Dawley rats (procedures described in Example 3) 1 hour following of intravenous injection via tail vein of ˜3 MBq of Compound 8, both before and after addition of 1:100 and 1:10,000 fold excess of cold Compound 8. At the appropriate time point post-injection of the test Item, each animal was re-anaesthetised with isoflurane, sacrificed by cervical dislocation and weighed. Each animal was dissected and organs and tissues (see Tables 5 and 6 below) were removed and counted using BASIL counter protocol 40 or manual counting.

[3] = test system: BDL fibrogenic liver; test: as above; assay type: in vivo; details: rat, in vivo
Procedure: as §1, §2, §3, §4, §5, §6

- Ki [1]: 6 nM
- dose excreted at 1 h ([2]; 3 MBq, 10K-fold excess cold Compound 8): 41.6%
- dose excreted at 1 h ([2]; 3 MBq, 100-fold excess cold Compound 8): 38.3%
- dose excreted at 1 h ([2]; 3 MBq, no excess): 41%
- tissue uptake dose at 1 h ([2]; blood, 10K-fold excess cold Compound 8, read-out: Activity in Blood, Mean): 1.6 %ID
- tissue uptake dose at 1 h ([2]; blood, 100-fold excess cold Compound 8, read-out: Activity in Blood, Mean): 1.61 %ID
- tissue uptake dose at 1 h ([2]; blood, no excess, read-out: Activity in Blood, Mean): 1.47 %ID
- tissue uptake dose at 1 h ([2]; bone, 10K-fold excess cold Compound 8, read-out: Activity in Bone, Mean): 3.18 %ID
- tissue uptake dose at 1 h ([2]; bone, 100-fold excess cold Compound 8, read-out: Activity in Bone, Mean): 2.97 %ID
- tissue uptake dose at 1 h ([2]; bone, no excess, read-out: Activity in Bone, Mean): 3.02 %ID
- tissue uptake dose at 1 h ([2]; carcass, 10K-fold excess cold Compound 8, read-out: Activity in Carcass, Mean): 6.14 %ID
- tissue uptake dose at 1 h ([2]; carcass, 100-fold excess cold Compound 8, read-out: Activity in Carcass, Mean): 6.47 %ID
- tissue uptake dose at 1 h ([2]; carcass, no excess, read-out: Activity in Carcass, Mean): 4.36 %ID
- tissue uptake dose at 1 h ([2]; heart, 10K-fold excess cold Compound 8, read-out: Activity in Heart, Mean): 0.14 %ID
- tissue uptake dose at 1 h ([2]; heart, 100-fold excess cold Compound 8, read-out: Activity in Heart, Mean): 0.13 %ID
- tissue uptake dose at 1 h ([2]; heart, no excess, read-out: Activity in Heart, Mean): 0.13 %ID
- tissue uptake dose at 1 h ([2]; injection site, 10K-fold excess cold Compound 8, read-out: Activity in Injection Site, Mean): 1.68 %ID
- tissue uptake dose at 1 h ([2]; injection site, 100-fold excess cold Compound 8, read-out: Activity in Injection Site, Mean): 1.75 %ID
- tissue uptake dose at 1 h ([2]; injection site, no excess, read-out: Activity in Injection Site, Mean): 1.32 %ID
- tissue uptake dose at 1 h ([2]; kidneys, 3 MBq, 10K-fold excess cold Compound 8, read-out: Activity in Kidneys, Mean): 3.61 %ID
- tissue uptake dose at 1 h ([2]; kidneys, 3 MBq, 100-fold excess cold Compound 8, read-out: Activity in Kidneys, Mean): 4.2 %ID
- tissue uptake dose at 1 h ([2]; kidneys, no excess, read-out: Activity in Kidneys, Mean): 3.78 %ID
- tissue uptake dose at 1 h ([2]; liver, 10K-fold excess cold Compound 8, read-out: Activity in Liver, Mean): 9.81 %ID
- tissue uptake dose at 1 h ([2]; liver, 100-fold excess cold Compound 8, read-out: Activity in Liver, Mean): 16.1 %ID
- tissue uptake dose at 1 h ([2]; liver, no excess, read-out: Activity in Liver, Mean): 12.7 %ID
- tissue uptake dose at 1 h ([2]; lung, 10K-fold excess cold Compound 8, read-out: Activity in Lung, Mean): 0.5 %ID
- tissue uptake dose at 1 h ([2]; lung, 100-fold excess cold Compound 8, read-out: Activity in Lung, Mean): 0.5 %ID
- tissue uptake dose at 1 h ([2]; lung, no excess, read-out: Activity in Lung, Mean): 0.43 %ID
- tissue uptake dose at 1 h ([2]; muscle, 10K-fold excess cold Compound 8, read-out: Activity in Muscle, Mean): 9.61 %ID
- tissue uptake dose at 1 h ([2]; muscle, 100-fold excess cold Compound 8, read-out: Activity in Muscle, Mean): 8.76 %ID
- tissue uptake dose at 1 h ([2]; muscle, no excess, read-out: Activity in Muscle, Mean): 10.8 %ID
- tissue uptake dose at 1 h ([2]; skin, 10K-fold excess cold Compound 8, read-out: Activity in Skin, Mean): 13 %ID
- tissue uptake dose at 1 h ([2]; skin, 100-fold excess cold Compound 8, read-out: Activity in Skin, Mean): 12 %ID
- tissue uptake dose at 1 h ([2]; skin, no excess, read-out: Activity in Skin, Mean): 12.6 %ID
- tissue uptake dose at 1 h ([2]; small and large intestine, 10K-fold excess cold Compound 8, read-out: Activity in Small & Large Intestine, Mean): 8.58 %ID
- tissue uptake dose at 1 h ([2]; small and large intestine, 100-fold excess cold Compound 8, read-out: Activity in Small & Large Intestine, Mean): 7.41 %ID
- tissue uptake dose at 1 h ([2]; small and large intestine, no excess, read-out: Activity in Small & Large Intestine, Mean): 8.32 %ID
- tissue uptake dose at 1 h ([2]; spleen, 10K-fold excess cold Compound 8, read-out: Activity in Spleen, Mean): 0.52 %ID
- tissue uptake dose at 1 h ([2]; spleen, 100-fold excess cold Compound 8, read-out: Activity in Spleen, Mean): 0.57 %ID
- tissue uptake dose at 1 h ([2]; spleen, no excess, read-out: Activity in Spleen, Mean): 0.51 %ID
- tissue uptake dose at 1 h ([2]; stomach, 10K-fold excess cold Compound 8, read-out: Activity in Stomach, Mean): 1.69 %ID
- tissue uptake dose at 1 h ([2]; stomach, 100-fold excess cold Compound 8, read-out: Activity in Stomach, Mean): 0.96 %ID
- tissue uptake dose at 1 h ([2]; stomach, no excess, read-out: Activity in Stomach, Mean): 0.89 %ID
- tissue uptake dose at 1 h ([2]; thyroid, 10K-fold excess cold Compound 8, read-out: Activity in Thyroid, Mean): 0.06 %ID
- tissue uptake dose at 1 h ([2]; thyroid, 100-fold excess cold Compound 8, read-out: Activity in Thyroid, Mean): 0.04 %ID
- tissue uptake dose at 1 h ([2]; thyroid, no excess, read-out: Activity in Thyroid, Mean): 0.04 %ID
SMILES: C/C(=N\O)C(C)(C)NCCC(CCNC(=O)CCCC(=O)NCCCC[C@@H]1NC(=O)CSC[C@@H](C(=O)NCCOCCOCCOCCNC(=O)COCC(N)=O)NC(=O)[C@H](Cc2ccccc2)NC(=O)[C@@H]2CSSC[C@H](NC1=O)C(=O)N[C@@H](CCCNC(=N)N)C(=O)NCC(=O)N[C@@H](CC(=O)O)C(=O)N2)CCNC(C)(C)/C(C)=N/O (some centres unmarked) [Compound 8] ({CH2CO}-K([Glutaryl-X1])CRGDCFC-X2; disulfide 2-6; thioether N-8)
- Binding to BDL fibrogenic liver with excess cold compound (in words) [3]: Specifically Inhibited by Cold Compound 8
